Assay results taken from US20230203098A1, “HUMAN TRANSFERRIN RECEPTOR BINDING PEPTIDE” (priority 2020, published 2023).
pKd: −log10 of the molar value. Like-named read-outs stand apart in the source and are kept apart here. One block for each molecule: values may come before it. Where a SMILES comes first, the peptide text is derived from it. Bridges are numbered along the chain shown (N, C = ends). [ ]: non-standard residue; d: D form. The star is where a group is joined. ξ: configuration not given here. X2 = O=C(O)c1cc(C(=O)*)ccc1-c1c2ccc(=O)cc-2oc2cc(O)ccc12; PEG12 = NCCOCCOCCOCCOCCOCCOCCOCCOCCOCCOCCOCCOCCC(=O)O; NMePhe(3-Cl) = CN[C@@H](Cc1cccc(Cl)c1)C(=O)O; NMeW = CN[C@@H](Cc1c[nH]c2ccccc12)C(=O)O; NMeY = CN[C@@H](Cc1ccc(O)cc1)C(=O)O; NMeH = CN[C@@H](Cc1c[nH]cn1)C(=O)O; NMeF = CN[C@@H](Cc1ccccc1)C(=O)O; PEG4 = NCCOCCOCCOCCOCCC(=O)O; ξαMeK = CC(N)(CCCCN)C(=O)O; Dab = NCC[C@H](N)C(=O)O; Aib = CC(C)(N)C(=O)O

Biological target: transferrin receptor (hTfR) (Homo sapiens, UniProt P02786)
Experiment: Intermolecular interaction evaluation test between transferrin receptor (hTfR) and peptide by surface plasmon resonance (SPR)
Type: binding
Description: For each of the various synthesized peptides, the intermolecular interaction of the peptide with the transferrin receptor (hTfR) was tested by surface plasmon resonance (SPR) according to the following method. The specific test method is as follows.
An NTA sensor chip (Global Life Sciences Technologies Japan) was inserted in a Biacore T200 (Global Life Sciences Technologies Japan) and a prime operation was performed 3 times with a running buffer: 10 mM HEPES pH 8.0 (Nacalai Tesque), 150 mM NaCl (Nacalai Tesque), 0.05% Tween 20 (Nacalai Tesque), 0.1% BSA (Sigma-Aldrich), 1.0% DMSO (FUJIFILM Wako Pure Chemical) to create an Equilibration state at a flow rate of 30 µL/min. After reacting with 350 mM EDTA solution for 60 seconds at a flow rate of 10 µL/min then reacting with 0.5 mM NiCl2 solution (Kishida Chemical) for 60 seconds at a flow rate of 10 µL/min, the NTA sensor chip was washed with 3 mM EDTA solution (Nacalai Tesque) for 60 seconds at a flow rate of 10 µL/min. After mixing 50 µL each of 60 mM EDC solution (Global Life Sciences Technologies Japan) and 650 mM NHS solution (Global Life Sciences Technologies Japan), the mixture was reacted for 420 seconds at a flow rate of 10 µL/min. By diluting with the running buffer, 150 µL of 3.2 µM hTfR solution was prepared and used for reaction for 600 seconds at a flow rate of 10 µL/min, thereby immobilizing hTfR on the NTA sensor chip. After immobilization, capping was performed by reacting with 1.0 M ethanolamine aqueous solution (Global Life Sciences Technologies Japan) for 420 seconds at a flow rate of 10 µL/min. A peptide dissolution liquid prepared to 10 mM in the DMSO solution was diluted with the running buffer to a final concentration of 10 µM so as to become the peptide dissolution liquid, then peptide solutions of 100 nM, 50 nM, 25 nM, 10 nM and 5 nM were prepared. Kinetics of the peptide to hTfR was acquired by SPR measurement using the above-mentioned samples. Single-cycle kinetics was used as a kinetic evaluation model and curve fitting was performed using Biacore T200 Evaluation Software Version 3.0 (Global Life Sciences Technologies Japan). An obtained sensorgram was subjected to curve fitting using the least-squares method, and the binding of the peptide to hTfR was evaluated by obtaining KD values. […] A chemical structure of hTfR No. 894 is as follows.
The variant peptides were synthesized according to Example 1 unless otherwise stated in Example 9 or 10. The linker-added peptides were synthesized according to Example 1, except that Fmoc-NH-SAL-PEG resin (Watanabe Chemical Industries) was used as a resin for the peptide synthesis when the linker was PEG. The peptide, to which a peptide, a fatty acid, PEG, or a conjugate thereof is added as a linker, was also synthesized according to Example 1, unless otherwise stated in Example 9 or 10.

[1] = surface plasmon resonance, peptide vs hTfR, read-out: KD value, hTfR binding by SPR (class symbol)
[2] = surface plasmon resonance, hTfR, read-out: KD value for hTfR by SPR (class symbol)

Sequence of transferrin receptor (hTfR) (P02786 whole entry): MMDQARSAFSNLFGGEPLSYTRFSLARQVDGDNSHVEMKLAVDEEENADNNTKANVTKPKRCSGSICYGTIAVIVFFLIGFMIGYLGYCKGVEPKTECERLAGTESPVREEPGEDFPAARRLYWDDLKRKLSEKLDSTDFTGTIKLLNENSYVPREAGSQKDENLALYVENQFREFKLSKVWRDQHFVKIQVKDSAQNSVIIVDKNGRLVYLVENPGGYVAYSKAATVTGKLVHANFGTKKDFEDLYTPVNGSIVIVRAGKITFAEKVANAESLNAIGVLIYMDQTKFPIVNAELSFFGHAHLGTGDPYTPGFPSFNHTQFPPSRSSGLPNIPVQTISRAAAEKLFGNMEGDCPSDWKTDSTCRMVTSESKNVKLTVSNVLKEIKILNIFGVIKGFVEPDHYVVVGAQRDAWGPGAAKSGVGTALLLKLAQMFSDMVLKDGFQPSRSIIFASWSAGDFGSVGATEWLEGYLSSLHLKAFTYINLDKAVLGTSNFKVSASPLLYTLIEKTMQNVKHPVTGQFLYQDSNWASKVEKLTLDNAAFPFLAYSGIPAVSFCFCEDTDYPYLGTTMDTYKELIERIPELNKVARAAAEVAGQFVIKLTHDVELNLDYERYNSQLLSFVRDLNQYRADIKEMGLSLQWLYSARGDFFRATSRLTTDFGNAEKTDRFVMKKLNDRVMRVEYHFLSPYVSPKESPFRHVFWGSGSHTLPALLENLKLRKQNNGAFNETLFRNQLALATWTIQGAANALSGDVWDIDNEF

Compound: CC[C@H](C)[C@@H]1NC(=O)[C@H](Cc2ccc(O)cc2)NC(=O)[C@H](Cc2ccc(O)cc2)NC(=O)[C@H](CC(N)=O)NC(=O)[C@H](Cc2c[nH]c3ccccc23)NC(=O)[C@H](C(C)C)NC(=O)[C@H](Cc2ccccc2)N(C)C(=O)[C@H](C(C)C)NC(=O)[C@H](C)NC(=O)CSC[C@@H](C(=O)NCC(=O)NCC(=O)N[C@@H](CO)C(=O)N[C@@H](CO)C(=O)N[C@@H](CCCCNC(=O)C2CCC(CN3C(=O)C=CC3=O)CC2)C(N)=O)NC(=O)[C@H](Cc2ccc(O)cc2)N(C)C(=O)[C@H](Cc2ccc(O)cc2)NC(=O)[C@H](CCCNC(=N)N)NC(=O)[C@H](CCCNC(=N)N)NC(=O)[C@H]([C@@H](C)CC)NC1=O (some centres unmarked) [compound 193]
pKd (hTfR binding by SPR, hTfR No. 894 variant peptides, linker-added peptides and payload conjugates (Table 2), read-out: KD value obtained from the SPR measurement): 7.00 to 9.00

Compound: CC[C@H](C)[C@@H]1NC(=O)[C@H](Cc2ccc(OC)cc2)NC(=O)[C@H](Cc2ccc(O)cc2)NC(=O)[C@H](CC(N)=O)NC(=O)[C@H](Cc2c[nH]c3ccccc23)N(C)C(=O)[C@H](C(C)C)NC(=O)[C@H](Cc2cccc(Cl)c2)N(C)C(=O)[C@H](CCC(=O)O)NC(=O)[C@H](C)NC(=O)CSC[C@@H](C(N)=O)NC(=O)[C@H](CCCNC(=N)N)NC(=O)[C@H](Cc2ccccc2)NC(=O)[C@H](CCCNC(=N)N)NC(=O)[C@H](CC(=O)O)NC(=O)[C@H]([C@@H](C)CC)NC1=O [compound 227] ({CH2CO}-AE[NMePhe(3-Cl)]V[NMeW]NYY(Me)IIDRFRC-NH2; thioether N-15)
pKd (SPR, peptides, linker-added peptides and FITC conjugates, Patent ID 203-230, read-out: KD): 7.00 to 9.00

Compound: CC[C@H](C)[C@@H]1NC(=O)[C@H](Cc2ccc(OC)cc2)NC(=O)[C@H](Cc2ccc(O)cc2)NC(=O)[C@H](CC(N)=O)NC(=O)[C@H](Cc2c[nH]c3ccccc23)N(C)C(=O)[C@H](C(C)C)NC(=O)[C@H](Cc2ccccc2)N(C)C(=O)[C@H](C(C)C)NC(=O)[C@H](C)NC(=O)CSC[C@@H](C(=O)NCCOCCOCCOCCOCCC(N)=O)NC(=O)[C@H](Cc2ccc(O)cc2)N(C)C(=O)[C@H](Cc2ccccc2)NC(=O)[C@@H](CCCNC(=N)N)NC(=O)C(C)(C)NC(=O)[C@H]([C@@H](C)CC)NC1=O [compound 301] ({CH2CO}-AV[NMeF]V[NMeW]NYY(Me)II[Aib][dR]F[NMeY]C[PEG4]-NH2; thioether N-15)
pKd [1]: 7.00 to 9.00

Compound: CC[C@H](C)[C@@H]1NC(=O)[C@H](CCCNC(=N)N)NC(=O)[C@H](CC(N)=O)NC(=O)[C@H](C)NC(=O)CSC[C@@H](C(=O)NCCOCCOCCOCCOCCOCCOCCOCCOCCOCCOCCOCCOCCC(=O)N[C@@H](CCCCNC(=O)c2ccc(-c3c4ccc(=O)cc-4oc4cc(O)ccc34)c(C(=O)O)c2)C(N)=O)NC(=O)[C@H](Cc2c[nH]cn2)N(C)C(=O)[C@H](CCCNC(=N)N)NC(=O)[C@@H]2CCCN2C(=O)[C@H]([C@@H](C)CC)NC(=O)[C@H]([C@@H](C)CC)NC(=O)[C@H](Cc2ccc(O)cc2)NC(=O)[C@H](Cc2ccc(O)cc2)NC(=O)[C@H](CC(N)=O)NC(=O)[C@H](Cc2c[nH]c3ccccc23)NC(=O)[C@H](C(C)C)NC(=O)[C@H](Cc2ccccc2)NC(=O)[C@H](C(C)C)NC1=O [compound 154] ({CH2CO}-ANRIVFVWNYYIIPR[NMeH]C[PEG12]K(X2)-NH2; thioether N-17)
pKd (SPR, linker and payload (FITC, VivoTag) conjugates, read-out: KD): 7.00 to 9.00

Compound: CC[C@H](C)[C@@H]1NC(=O)[C@H](Cc2ccc(O)cc2)NC(=O)[C@H](Cc2ccc(O)cc2)NC(=O)[C@H](CC(N)=O)NC(=O)[C@H](Cc2c[nH]c3ccccc23)NC(=O)[C@H](C(C)C)NC(=O)[C@H](Cc2ccccc2)N(C)C(=O)[C@H](C(C)C)NC(=O)[C@H](C)NC(=O)CSC[C@@H](C(=O)NCCOCCOCCOCCOCCOCCOCCOCCOCCOCCOCCOCCOCCC(N)=O)NC(=O)[C@H](Cc2ccc(O)cc2)N(C)C(=O)[C@H](Cc2ccc(O)cc2)NC(=O)[C@H](CCCNC(=N)N)NC(=O)[C@H](CCCNC(=N)N)NC(=O)[C@H](Cc2ccc(O)cc2)NC1=O [compound 115] ({CH2CO}-AV[NMeF]VWNYYIYRRY[NMeY]C[PEG12]-NH2; thioether N-15)
pKd (SPR, hTfR No. 894 variants with PEG12c linker (Table 2), read-out: KD): 7.00 to 9.00

Compound: CC[C@H](C)[C@@H]1NC(=O)[C@H](Cc2ccc(O)cc2)NC(=O)[C@H](Cc2ccc(O)cc2)NC(=O)[C@H](CC(N)=O)NC(=O)[C@H](Cc2c[nH]c3ccccc23)N(C)C(=O)[C@H](C(C)C)NC(=O)[C@H](Cc2ccccc2)N(C)C(=O)[C@H](C(C)C)NC(=O)[C@H](C)NC(=O)CSC[C@@H](C(N)=O)NC(=O)[C@H](Cc2ccc(O)cc2)N(C)C(=O)[C@H](Cc2ccc(O)cc2)NC(=O)[C@H](CCCNC(=N)N)NC(=O)[C@H](CCCNC(=N)N)NC(=O)[C@H]([C@@H](C)CC)NC1=O [compound 299]
pKd [1]: 7.00 to 9.00

Other lines, results leading:

pKd [2]: 7.00 to 9.00
Compound: CC[C@H](C)[C@@H]1NC(=O)[C@H](Cc2ccc(OC)cc2)NC(=O)[C@H](Cc2ccc(O)cc2)NC(=O)[C@H](CC(N)=O)NC(=O)[C@H](Cc2c[nH]c3ccccc23)N(C)C(=O)[C@H](C(C)C)NC(=O)[C@H](Cc2cccc(Cl)c2)N(C)C(=O)[C@H](C(C)C)NC(=O)[C@H](C)NC(=O)CSC[C@@H](C(=O)NCCOCCOCCOCCOCCC(N)=O)NC(=O)[C@H](Cc2ccc(O)cc2)N(C)C(=O)[C@H](Cc2ccccc2)NC(=O)[C@@H](CCCNC(=N)N)NC(=O)C(C)(CCCCN)NC(=O)[C@H]([C@@H](C)CC)NC1=O (some centres unmarked) [compound 380] ({CH2CO}-AV[NMePhe(3-Cl)]V[NMeW]NYY(Me)II[ξαMeK][dR]F[NMeY]C[PEG4]-NH2; thioether N-15)

pKd (surface plasmon resonance, peptide vs hTfR, read-out: KD value for hTfR by SPR (class symbol)): 7.00 to 9.00
Compound: CC[C@H](C)[C@@H]1NC(=O)[C@H](Cc2ccc(O)cc2)NC(=O)[C@H](Cc2ccc(O)cc2)NC(=O)[C@H](CC(N)=O)NC(=O)[C@H](Cc2c[nH]c3ccccc23)N(C)C(=O)[C@H](C(C)C)NC(=O)[C@H](Cc2cccc(Cl)c2)N(C)C(=O)[C@@H]2CCC(=O)NCCCCC[C@H](NC(=O)[C@H]([C@@H](C)CC)NC1=O)C(=O)N[C@@H](CCCNC(=N)N)C(=O)N[C@@H](Cc1ccc(O)cc1)C(=O)N(C)[C@@H](Cc1ccc(O)cc1)C(=O)N[C@H](C(N)=O)CSCC(=O)N[C@@H](C)C(=O)N2 [compound 411]

pKd [1]: 7.00 to 9.00
Compound: CC[C@H](C)[C@@H]1NC(=O)[C@H](Cc2ccc(OC)cc2)NC(=O)[C@H](Cc2ccc(O)cc2)NC(=O)[C@H](CC(N)=O)NC(=O)[C@H](Cc2c[nH]c3ccccc23)N(C)C(=O)[C@H](C(C)C)NC(=O)[C@H](Cc2cccc(Cl)c2)N(C)C(=O)[C@H](C(C)C)NC(=O)[C@H](C)NC(=O)CSC[C@@H](C(=O)NCCOCCOCCOCCOCCC(N)=O)NC(=O)[C@H](Cc2ccc(O)cc2)N(C)C(=O)[C@H](Cc2ccccc2)NC(=O)[C@@H](CCCNC(=N)N)NC(=O)[C@H](CCCNC(=N)N)NC(=O)[C@H](CCN)NC1=O [compound 337] ({CH2CO}-AV[NMePhe(3-Cl)]V[NMeW]NYY(Me)I[Dab]R[dR]F[NMeY]C[PEG4]-NH2; thioether N-15)

pKd [2]: 7.00 to 9.00
Compound: CC[C@H](C)[C@@H]1NC(=O)[C@H](Cc2ccc(O)cc2)NC(=O)[C@H](Cc2ccc(O)cc2)NC(=O)[C@H](CC(N)=O)NC(=O)[C@H](Cc2c[nH]c3ccccc23)N(C)C(=O)[C@H](C(C)C)NC(=O)[C@H](Cc2cccc(Cl)c2)N(C)C(=O)[C@@H]2CCCC(=O)NCCCC[C@H](NC(=O)[C@H]([C@@H](C)CC)NC1=O)C(=O)N[C@@H](CCCNC(=N)N)C(=O)N[C@@H](Cc1ccc(O)cc1)C(=O)N(C)[C@@H](Cc1ccc(O)cc1)C(=O)N[C@H](C(N)=O)CSCC(=O)N[C@@H](C)C(=O)N2 [compound 409]

pKd [2]: 7.00 to 9.00
Compound: CC[C@H](C)[C@@H]1NC(=O)[C@H](Cc2ccc(OC)cc2)NC(=O)[C@H](Cc2ccc(O)cc2)NC(=O)[C@H](CC(N)=O)NC(=O)[C@H](Cc2c[nH]c3ccccc23)N(C)C(=O)[C@H](C(C)C)NC(=O)[C@H](Cc2cccc(Cl)c2)N(C)C(=O)[C@H](C(C)C)NC(=O)[C@H](C)NC(=O)CSC[C@@H](C(N)=O)NC(=O)[C@H](Cc2ccc(O)cc2)N(C)C(=O)[C@H](Cc2ccccc2)NC(=O)[C@@H](CCCNC(=N)N)NC(=O)[C@H](CCCCN)N(C)C(=O)[C@H]([C@@H](C)CC)NC1=O [compound 377]
